In patent US11826341B2, “Baicalein analogs for use in neuroprotection and regulation of immune reactivity” (THE HONG KONG POLYTECHNIC UNIVERSITY, priority 2021, dated 2023):
Entries after “also recorded” stand apart in the source; their conditions may differ.

Assays:
[1] = system: human microglia HMC3 cell line; assay: Cytokine array of culture media after LPS and ATP challenge; assay type: cell-based; details: 1 μM or 10 μM for 42 hours after 6 hours LPS and 30 mins ATP
Method: (§5) (A) Quantification the averaged pixel density of selected cytokines produced by human microglia cell line HMC-3 culture. […] Error bar=SEM. *P<0.05; **P<0.01. Scale bar=100 μM. One-way ANOVA. […] After 6 hours LPS stimulation and additional 30 mins ATP challenge, vehicle, 1 μM or 10 μM baicalein was delivered to the culture media for an additional 42 hours. The culture media from different groups was collected for the cytokine array, while the cells were lysed for qPCR to identify the mRNA level.

RGCs = assay: RGC survival in vivo after retinal ischemia/reperfusion injury (Brn-3a whole-mount retina); set-up: species or system mice; details: 4 weeks after ischemia/reperfusion, injured control 2,314+/−383, uninjured 3,901+/−145
Method: (§1) (A) representative photomicrographs showing Brn-3a staining a whole-mounted retina from four weeks after ischemia injury in vehicle, 10 μM or 100 μM baicalein group; (B) bar graph quantifying the number of survived RGCs in 4 weeks post-injury retina from vehicle, 10 μM or 100 μM baicalein group; (C) bar graph the number of live primary RGC survival rate in vehicle, 1 μM baicalein group. Bar=20 μm. *P<0.05; **P<0.01 value was statistically analyzed by one-way ANOVA.
(§2) Example 1—Baicalein improves RGCs survival in vitro culture or after ischemia/reperfusion damages. To study the effect of baicalein on retinal neurons, we carried out in vitro RGC cultures and in vivo studies of RGCs survival in experimental models of retinal ischemia/reperfusion injury. RGC density dropped from 3,901+/−145 cells/mm^2 to 2,314+/−383 cells/mm^2 at 4 weeks following ischemia/reperfusion injury. […] Moreover, purified mouse RGCs were cultured with vehicle, 1 μM or 10 μM Baicalein for 48 hours.

retinal microglia = assay: qPCR of activated microglia markers and pro-inflammatory cytokines in retina after ischemia/reperfusion; assay type: in vivo, mice; details: 100 μM
Method: Quantifications of qPCR assay showing the relative expression of (B) activated microglia markers and (C) pro-inflammatory cytokines in normal mice, and mice at 1 wk and 4 wks post ischemia/reperfusion retina from vehicle or 100 μM Ba given group. Error bar-SEM. *P<0.05.

[2] = system: human microglia HMC3 cell line; assay: PI3K and NFkB immunostaining in LPS and ATP challenged microglia; assay type: cell-based; details: 10 μM; LPS and ATP challenged human microglial cells
Method: (§3) FIG. 5 Baicalein suppresses PI3K and NFkB pathway in both primary mouse brain microglia and human microglia HMC3 cell line in vitro. (A) Representative bright field images of primary mouse brain microglia and images immunostained with DAPI (blue), p85 PI3K (red) and p65 NFkB (green) antibody in LPS and ATP plus vehicle or 10 μM baicalein delivered group respectively. Scale bar=40 μm (B) Representative human microglia images immunostained with DAPI (blue), p85 PI3K (red) and p65 NFkB (green) antibody in LPS and ATP plus vehicle or 10 μM baicalein delivered group respectively. Error bar=SEM. *P<0.05; **P<0.01. Scale bar=100 μm.
(§4) To further understand if the effects of suppressing microglia activation and cytokines release are related with NFkB and PI3K pathway, we examine the performance of baicalein in primary mouse microglia and human microglial cell line HMC-3.

[3] = system: primary mouse brain microglia; assay: as above; assay type: cell-based; details: 10 μM; LPS and ATP challenged mouse microglial cells
Method: as §3, §4

[4] = system: ischemia/reperfusion mice; assay: Optomotor response (OMR) after ischemia/reperfusion injury; assay type: in vivo
Method: (K) Graphs showing contrast sensitivity (CS) and (L) visual acuity (VA) of optomotor response (OMR) in mice received ischemia/reperfusion and intravitreal injections of vehicle, 10 μM or 100 μM baicalein. Error bar=SEM. *P<0.05; **P<0.01.

HMC-3 = assay: Intracellular calcium after ATP stimulation; assay type: cell-based, human; details: 10 μM pretreatment 24 hrs; 50 μM ATP stimulation
Method: (A) Changes of [Ca^2+]i in cultured HMC-3 with pretreatment of vehicle or 10 μM baicalein for 24 hrs. […] (B) Quantification of [Ca^2]i levels in different treatment groups after stimulation (n=6 cultures/group, and 10-20 neurons were recorded from each group). […] To verify the effect of baicalein on the influence of microglia state, the measurement of intracellular calcium concentration [Ca2+]I was applied. After adding 50 μM ATP to microglial cells, the influx of [Ca2+]I was triggered immediately in naïve group.

[5] = system: human microglia HMC3 cell line; assay: qPCR of pro-inflammatory genes after LPS and ATP challenge; assay type: cell-based; details: 1 μM or 10 μM for 42 hours after LPS and ATP
Method: as §5

[6] = system: ischemia/reperfusion mice; details: mouse, in vivo
Method: The results of electroretinogram (ERG) and optomotor response (OMR) measurements were used to determine the changes of visual functions after ischemia/reperfusion damages. For ERG measurement, positive scotopic threshold response (pSTR), scotopic a- and b-wave, M-cone and 10 Hz flicker amplitudes were obtained from the three experimental groups (i.e. vehicle, 10 μM and 100 μM baicalein) at baseline, 1 wk, 2 wks and 4 wks post-ischemia/reperfusion injury (FIGS. 2A, 2B, 2C, 2D, 2E, 2F, 2G, 2H, 2I and 2J). […] At the same time, the electrical signals from M-cone and 10 Hz-flicker stimulus were also captured (FIGS. 2F, 2G, 2H, 2I and 2J).

CD4+ T cells = assay: Flow cytometry of CD4+ T cells in retina and superior cervical lymph nodes after ischemia/reperfusion; assay type: in vivo, mice; details: 100 μM
Method: (A) 1 wk representative flow images and (B) quantification of the CD4+ cell percentage in the retina at 1 wk and 4 wks timepoint. Flow cytometry quantification of frequencies of subsets of CD4+ T cells in the draining LNs of the eye taken from mice at 1 wk (C) and 4 wks (D) after acute ischemic injury in vehicle or 100 μM baicalein given group. Shown were percentages of CD4+ T cells that expressed IFN-γ, IL-17, IL-4, IL-10 or TGF-β among fresh-isolated total LN lymphocytes. […] Th1, Th2, Th17, and Treg cells, again were divided based on the expression profile of hallmark cytokines: IFN-γ (TH1), IL-4 (TH2), IL-10 (TH2), IL-17 (TH17), and TGF-β (Treg)^16.

purified mouse RGCs = assay: Purified RGC culture survival; assay type: cell-based; details: 48 hours, vehicle 35.8+/−1.3%
Method: as §1, §2

[7] = 100 μM weekly intravitreal, 4 weeks after ischemia

With `O=c1cc(-c2ccccc2)oc2cc(O)c(O)c(O)c12` [baicalein, 5,6,7-trihydroxyflavone] the “release of pro-inflammatory factors (CCL2, Cxcl10, IL-1α, IL-10, TNFα, etc)” value [1] was “largely draw the release of pro-inflammatory factors to the resting level”, the RGC density (RGCs; 10 μM intravitreal injection day 1 after injury) was 3,480+/−197 cells/mm^2 and the RGC density (RGCs; 100 μM intravitreal injection day 1 after injury) was 3,604+/−137 cells/mm^2. For the same compound, the “mRNA levels of activated microglia markers Iba-1, YM-1 and Nox2” value (retinal microglia; retina 1- and 4-week post injury) was “relatively low mRNA levels”, the “pro-inflammatory cytokines CCL2, IL-1α (qPCR)” value (retinal microglia; retina, vs vehicle group) was “down-regulated” and the “PI3K and NFkB pathway activation” value [2] was “effectively reduce”. For the same compound, the “PI3K and NFkB pathway activation” value [3] was “effectively reduce”, the visual acuity ([4]; 10 μM intravitreal, after ischemia injury) was “improvement” and the contrast sensitivity [4, 7] was “improved”. The visual acuity [4, 7] was “improved”, the “elevation of intracellular calcium [Ca2+]i” value (HMC-3) was “delayed Ca^2+ influx with reduced magnitude; also recorded: suppressed effectively” and the IL-6 expression level [5] was “significant suppression”. For the same compound, the “expression of IL-10 and TNFα” value ([5]; vs vehicle group) was “dramatically dropped”, the “mRNA fold changes of IL-1β and TNFα” value ([5]; vs vehicle group) was “consistent anti-inflammation effects” and the “Scotopic ERG a wave and b wave (bipolar cells)” value [6] was “protective effects”. The “IFNγ (TH1) CD4+ T cells in superior cervical LNs” value (CD4+ T cells; 1 and 4 weeks after ischemic injury) was “significantly inhibited”, the “IL-10 (TH2) expression in superior cervical LNs” value (CD4+ T cells; 4-week post-injury) was “lower than that of vehicle-treated” and the “IL-4 (TH2) level in superior cervical LNs” value (CD4+ T cells; 4-week time point) was “lower than vehicle group”. The “number of infiltrated T cells in the retina” value (CD4+ T cells; after ischemia/reperfusion injury) was “decrease”, the RGC survival rate (purified mouse RGCs; 1 μM) was 42.0+/−1.2% and the RGC survival rate (purified mouse RGCs; 10 μM) was 41.1+/−1.9%.
